What was measured:
Experiment in all cases: Antiproliferative MTT assay
Conditions in all cases: 30 μM pure natural product, 72 h
HEK293-Mock-B = assay type: cell-based, human
Description: (§1) For the determination of the antiproliferative properties of the prepared extract and selected alkaloids (isopteropodine, mitraphylline, and uncarine D), an MTT assay was applied on our […] cell panel (see Table S4). […] All were maintained in a minimal essential medium completed with 10% fetal bovine serum, 1% non-essential amino acids, and 1% penicillin–streptomycin at 37 °C in a humidified atmosphere containing 5% CO2. All cell lines were purchased from the European Collection of Cell Cultures (Salisbury, UK), except for SiHa and C33A, which were from the American Tissue Culture Collection, LGC Standards GmbH (Wesel, Germany). Cell culture media and supplements were obtained from Lonza Group Ltd. (Basel, Switzerland). Cells were seeded into 96-well plates (C33A 10,000/well, all others 5000/well); after overnight incubation, the test substances were added and incubated for another 72 h under cell-culturing conditions. Uncaria tomentosa extract and the alkaloids were tested in the 1–90 μg/mL and 1–30 μM ranges, respectively. Finally, 20 μL of 5 mg/mL MTT solution was added to each well and incubated for 4 h; the medium was discarded, and the precipitated formazan crystals were dissolved in DMSO for 60 min with shaking. The absorbance was determined using a microplate reader (SPECTROstar Nano, BMG Labtech GmbH). Two independent experiments were performed with five parallels for each condition. Cisplatin, a clinically used anticancer agent (Ebewe GmbH, Unterach, Austria), was included as a reference compound. Calculations were conducted using the GraphPad Prism 10.0 software (GraphPad Software Inc., San Diego, CA, USA).
(§2) Table S4 – Antiproliferative properties of Uncaria tomentosa extract, three natural products (isopteropodine, mitraphylline, and uncarine D) and the
(§3) reference agent cisplatin.
(§4) Cell line Uncaria tomentosa isopteropodine mitraphylline uncarine D [95% confidence
(§5) 1: The highest applied concentration was 90 μg/mL and 30 μM for the extract and the pure natural products, respectively.
(§6) 2: Inhibitions less than 20% compared to the untreated control were regarded as negligible and were not given numerically.

MCF7 = assay type: cell-based, human
Description: as §1, §2, §3, §4, §5, §6

MDA-MB-231 = assay type: cell-based, human
Description: as §1, §2, §3, §4, §5, §6

T47D = assay type: cell-based, human
Description: as §1, §2, §3, §4, §5, §6

HEK293-Mock = assay type: cell-based, human
Description: as §1, §2, §3, §4, §5, §6

A2780 = assay type: cell-based, human
Description: as §1, §2, §3, §4, §5, §6

HeLa = assay type: cell-based, human
Description: as §1, §2, §3, §4, §5, §6

C33A = assay type: cell-based, human
Description: as §1, §2, §3, §4, §5, §6

SiHa = assay type: cell-based, human
Description: as §1, §2, §3, §4, §5, §6

NIH/3T3 = assay type: cell-based, murine
Description: as §1, §2, §3, §4, §5, §6

HEK293-MDR1 = assay type: cell-based, human
Description: as §1, with “Two independent experiments were performed with five parallels for each condition. Cisplatin, a clinically used anticancer agent (Ebewe GmbH, Unterach, Austria), was included as a reference compound. Calculations were conducted using the GraphPad Prism 10.0 software (GraphPad Software Inc., San Diego, CA, USA).” left out

In the case of `COC(=O)C1=CO[C@@H](C)[C@@H]2CN3CC[C@@]4(C(=O)Nc5ccccc54)[C@@H]3C[C@H]12` [isopteropodine], the “Cell growth inhibition at the highest concentration (% ± SEM)” value (“Cell growth inhibition … (% ± SEM)” below) (HEK293-Mock-B) is reported as under 20%, the “Cell growth inhibition … (% ± SEM)” value (MCF7) is reported as under 20% and the “Cell growth inhibition … (% ± SEM)” value (MDA-MB-231) is reported as under 20%. The “Cell growth inhibition … (% ± SEM)” value (T47D) was under 20%, the “Cell growth inhibition … (% ± SEM)” value (HEK293-Mock) was under 20% and the “Cell growth inhibition … (% ± SEM)” value (A2780) was under 20%. For the same compound, the “Cell growth inhibition … (% ± SEM)” value (HeLa) was under 20%, the “Cell growth inhibition … (% ± SEM)” value (C33A) was under 20% and the “Cell growth inhibition … (% ± SEM)” value (SiHa) was 27.38 ± 2.72%. For the same compound, the “Cell growth inhibition … (% ± SEM)” value (NIH/3T3) was under 20% and the “Cell growth inhibition … (% ± SEM)” value (HEK293-MDR1) was under 20%.
For `COC(=O)C1=CO[C@@H](C)[C@H]2CN3CC[C@]4(C(=O)Nc5ccccc54)[C@@H]3C[C@H]12` [mitraphylline], the “Cell growth inhibition … (% ± SEM)” value (HEK293-Mock-B) was under 20%, the “Cell growth inhibition … (% ± SEM)” value (MCF7) was under 20% and the “Cell growth inhibition … (% ± SEM)” value (MDA-MB-231) was under 20%. For the same compound, the “Cell growth inhibition … (% ± SEM)” value (T47D) was under 20%, the “Cell growth inhibition … (% ± SEM)” value (HEK293-Mock) was under 20% and the “Cell growth inhibition … (% ± SEM)” value (A2780) was under 20%. The “Cell growth inhibition … (% ± SEM)” value (HeLa) was under 20%, the “Cell growth inhibition … (% ± SEM)” value (C33A) was under 20% and the “Cell growth inhibition … (% ± SEM)” value (SiHa) was 26.22 ± 1.12%. The “Cell growth inhibition … (% ± SEM)” value (NIH/3T3) was under 20% and the “Cell growth inhibition … (% ± SEM)” value (HEK293-MDR1) was under 20%.

Source: article PMC11597817, “Modulation of Multispecific Transporters by Uncaria tomentosa Extract and Its Major Phytoconstituents” (Pharmaceutics, 2024)
